Reference: patent EP1022029A1, “NOOTROPIC AGENT” (priority 1997, dated 1999)

Assays:
Assay type in all cases: cell-based
[1] = tested on: mutant ACh receptors (mγΔPKA/Ser353,354m δΔPKA/Ser361,362) lacking PKA phosphorylation sites; test: ACh-evoked currents in mutant ACh receptors lacking PKA phosphorylation sites expressed in Xenopus oocytes; conditions: nefiracetam 0.01 µM; 30 min after treatment; n=7
Method: ACh (100 µM) was applied to each of an oocyte expressing normal ACh receptors and an oocyte expressing mutant ACh receptors (mγΔPKA/Ser353, 354m δΔPKA/Ser361,362) lacking PKA phosphorylation sites, before and after treatment with nefiracetam (0.01 µM). The oocytes expressing normal ACh receptors were treated with H-89 (1 µM) from 15 min before recording, or with pertussis toxin (0.1 µg/ml) for 24h prior to experiments. The currents illustrated in Table 16 were recorded before and 30 min after treatment with nefiracetam. The holding voltage was - 30 mV. In Table 16, each point represents the average obtained from seven oocytes.
To further examine whether the current depression by nefiracetam is due to PKA phosphorylation of the receptors or not, mutant ACh receptors lacking potent PKA phosphorylation sites on the γ and δ subunits (mγΔ PKA/Ser353,354m δΔPKA/Ser361,362) were expressed in Xenopus oocytes.

[2] = tested on: mutant ACh receptors lacking potent PKC phosphorylation sites on the α and δ subunits (mαΔPKC/Ser333m δΔPKC/Ser377); test: ACh-evoked currents in mutant ACh receptors lacking PKC phosphorylation sites expressed in Xenopus oocytes; conditions: nefiracetam 1 µM
[3] = tested on: postsynaptic potential of a slice of the rat hippocampus; test: Paired-pulse facilitation of the postsynaptic potential in hippocampal slices; conditions: nefiracetam-administered slices; interpulse intervals 50 to 150 msec
Method: Paired pulses were applied to slices at varying interpulse intervals, between 50 and 150 msec before and 10 minute after the administration of nefiracetam. […] Briefly, reaction induced by the first pulse application was potentiated to a maximum of 120% by the next pulse application. However, the pulses were consistently lower than those obtained with slices that had not been administered nefiracetam (Table 6); therefore, nefiracetam is considered to maximally enhance release of glutamate serving as an excitatory neurotransmitter.

[4] = tested on: field excitatory postsynaptic potentials (fEPSP); test: Field excitatory postsynaptic potentials (fEPSP slope) in rat hippocampal slices, CA1; conditions: nefiracetam 1 µM applied for 10 minutes
Method: Long-lasting facilitation of hippocampal synaptic transmission induced by nefiracetam was investigated. The field excitatory postsynaptic potentials (fEPSP) were recorded in the pyramidal cell layer of the CA1 region by electrical stimulation to the Schaeffer collateral pathway in rat hippocampla slices. Nefiracetam (1 µM) was applied to the hippocampla slices for 10 minutes. After nefiracetam application, fEPSPs were gradually augmented. This effect was observed until 240 minutes had passed since the experiment ended (Table 18-2).
Next, investigation was made regarding whether the above effect exerted by the present drug differs from the onset mechanism for long-term potentiation (LTP) action exerted when tetanic stimulation was used. The following three groups were compared: (group 1) tetanic stimulation alone; (group 2) nefiracetam + tetanic stimulation; (group 3) tetanic stimulation + nefiracetam. As a result, the fEPSPs that had been potentiated by nefiracetam was not potentiated any longer even when subsequent tetanic stimulation was applied. Likewise, the fEPSPs that had been potentiated by tetanic stimulation was not potentiated any longer even after subsequent application of nefiracetam. The amplitudes of potentiation of these two types of fEPSP were the same as the amplitude of tetanic stimulation. […]

[5] = tested on: calcium-dependent chloride currents; test: Calcium-dependent chloride currents in Xenopus oocytes
Method: In atropine-free frog Ringer's solution, acetylcholine (Ach) (100 µM) was administered to an oocyte that had not expressed ACh receptors. The holding voltage was -30 mV.
In Xenopus oocyte expression systems, ACh-evoked currents are known to be composed of ACh-gated channel currents and calcium-dependent chloride currents (R. Miledi et al., J. Physiol. 357, 173, 1984). Nefiracetam, however, had no effect on calcium-dependent chloride currents induced by stimulation from the endogenous muscarinic ACh receptors (FIG. 2).

[6] = biological target: T1, AMPA (GluR1, 2, 3) receptor (Rattus norvegicus, UniProt P19490+P19491+P19492); test: Kainate-evoked currents in GluR1, 2, 3 receptors expressed in Xenopus oocytes; conditions: nefiracetam 1 µM; kainate 100 µM; holding voltage -30 mV; n=5
T1 construct: expressed in transfected cells; host or cells: Xenopus oocytes injected with mRNA
Method: GluR 1, 2, 3 receptors which are AMPA receptors were expressed in Xenopus oocytes. Cell membrane currents evoked with kainate (100 µM) were recorded before and after administration of nefiracetam (1 µM) (n=5). […] The holding voltage was -30 mV. • (B): An oocyte expressing normal ACh receptors was loaded with Calcium Green. In Ca^2+-free (extCa^2+(-)) extracellular solution (extCa^2+(-)) and ordinary (i.e., Ca^2+-containing) extracellular solution, intracellular Ca^2+ ([Ca^2+]i) and Ach-evoked currents (IA) were recorded. The Ca^2+ rise was normalized by dividing "Δ increase of fluorescence intensity (DI)" by "base intensity (I)", and further by "current amplitude obtained with Ca^2+-free solution (2) (µA)". Indicated by "(1)" are currents obtained with Ca^2+-containing solution.
GluR1, 2, 3 receptors were expressed in Xenopus oocytes. Cell membrane currents evoked by kainate (100 µM) were recorded (n = 5) before and after treatment with nefiracetam (1 µM). The holding voltage was fixed at -30 mV.

T1 sequence (P19490 19-907): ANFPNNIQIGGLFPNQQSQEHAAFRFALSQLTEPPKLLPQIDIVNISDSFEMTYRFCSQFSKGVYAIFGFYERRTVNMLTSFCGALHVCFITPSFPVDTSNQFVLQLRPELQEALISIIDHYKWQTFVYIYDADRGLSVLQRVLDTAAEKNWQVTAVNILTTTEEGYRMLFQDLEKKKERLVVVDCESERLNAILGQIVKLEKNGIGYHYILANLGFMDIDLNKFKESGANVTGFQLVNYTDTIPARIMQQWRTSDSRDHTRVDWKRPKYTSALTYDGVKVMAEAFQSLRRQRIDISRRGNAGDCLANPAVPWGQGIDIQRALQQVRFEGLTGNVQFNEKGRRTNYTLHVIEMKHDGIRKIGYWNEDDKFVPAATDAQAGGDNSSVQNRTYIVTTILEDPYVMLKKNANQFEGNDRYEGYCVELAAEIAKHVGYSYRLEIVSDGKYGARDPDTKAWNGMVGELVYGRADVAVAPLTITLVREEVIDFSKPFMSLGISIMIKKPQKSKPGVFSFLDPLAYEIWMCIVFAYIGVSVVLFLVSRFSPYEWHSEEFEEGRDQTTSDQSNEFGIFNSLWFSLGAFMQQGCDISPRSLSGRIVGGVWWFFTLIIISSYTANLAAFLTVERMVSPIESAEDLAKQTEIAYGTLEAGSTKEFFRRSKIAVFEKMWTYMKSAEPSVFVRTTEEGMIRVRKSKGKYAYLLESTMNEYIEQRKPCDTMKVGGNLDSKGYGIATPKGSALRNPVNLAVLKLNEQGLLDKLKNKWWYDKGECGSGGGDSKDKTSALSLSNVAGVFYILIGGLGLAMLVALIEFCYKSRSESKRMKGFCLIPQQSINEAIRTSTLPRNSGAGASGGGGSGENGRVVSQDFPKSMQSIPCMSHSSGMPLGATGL
T1 sequence (P19491 22-883): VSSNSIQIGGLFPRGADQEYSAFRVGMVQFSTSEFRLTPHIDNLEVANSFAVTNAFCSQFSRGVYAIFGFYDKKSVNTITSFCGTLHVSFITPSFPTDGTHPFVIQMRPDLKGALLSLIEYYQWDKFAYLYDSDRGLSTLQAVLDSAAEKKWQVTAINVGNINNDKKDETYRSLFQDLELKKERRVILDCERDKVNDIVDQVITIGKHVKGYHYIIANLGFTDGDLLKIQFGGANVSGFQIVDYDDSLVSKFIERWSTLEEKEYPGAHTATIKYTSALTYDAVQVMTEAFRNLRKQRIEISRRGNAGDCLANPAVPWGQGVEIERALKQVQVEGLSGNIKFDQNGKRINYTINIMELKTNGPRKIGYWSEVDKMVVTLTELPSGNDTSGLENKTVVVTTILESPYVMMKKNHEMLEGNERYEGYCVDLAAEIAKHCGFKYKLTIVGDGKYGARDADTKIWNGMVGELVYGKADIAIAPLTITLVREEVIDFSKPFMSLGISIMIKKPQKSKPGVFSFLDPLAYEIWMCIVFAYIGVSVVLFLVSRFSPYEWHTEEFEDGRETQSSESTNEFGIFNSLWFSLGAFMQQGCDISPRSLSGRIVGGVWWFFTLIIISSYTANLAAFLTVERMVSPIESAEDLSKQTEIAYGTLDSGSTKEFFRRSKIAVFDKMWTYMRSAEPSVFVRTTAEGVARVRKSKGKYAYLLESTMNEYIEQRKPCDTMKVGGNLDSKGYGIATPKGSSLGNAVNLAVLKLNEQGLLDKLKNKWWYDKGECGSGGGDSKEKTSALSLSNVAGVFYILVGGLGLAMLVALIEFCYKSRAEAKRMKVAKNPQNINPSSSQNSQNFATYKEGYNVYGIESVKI
T1 sequence (P19492 23-888): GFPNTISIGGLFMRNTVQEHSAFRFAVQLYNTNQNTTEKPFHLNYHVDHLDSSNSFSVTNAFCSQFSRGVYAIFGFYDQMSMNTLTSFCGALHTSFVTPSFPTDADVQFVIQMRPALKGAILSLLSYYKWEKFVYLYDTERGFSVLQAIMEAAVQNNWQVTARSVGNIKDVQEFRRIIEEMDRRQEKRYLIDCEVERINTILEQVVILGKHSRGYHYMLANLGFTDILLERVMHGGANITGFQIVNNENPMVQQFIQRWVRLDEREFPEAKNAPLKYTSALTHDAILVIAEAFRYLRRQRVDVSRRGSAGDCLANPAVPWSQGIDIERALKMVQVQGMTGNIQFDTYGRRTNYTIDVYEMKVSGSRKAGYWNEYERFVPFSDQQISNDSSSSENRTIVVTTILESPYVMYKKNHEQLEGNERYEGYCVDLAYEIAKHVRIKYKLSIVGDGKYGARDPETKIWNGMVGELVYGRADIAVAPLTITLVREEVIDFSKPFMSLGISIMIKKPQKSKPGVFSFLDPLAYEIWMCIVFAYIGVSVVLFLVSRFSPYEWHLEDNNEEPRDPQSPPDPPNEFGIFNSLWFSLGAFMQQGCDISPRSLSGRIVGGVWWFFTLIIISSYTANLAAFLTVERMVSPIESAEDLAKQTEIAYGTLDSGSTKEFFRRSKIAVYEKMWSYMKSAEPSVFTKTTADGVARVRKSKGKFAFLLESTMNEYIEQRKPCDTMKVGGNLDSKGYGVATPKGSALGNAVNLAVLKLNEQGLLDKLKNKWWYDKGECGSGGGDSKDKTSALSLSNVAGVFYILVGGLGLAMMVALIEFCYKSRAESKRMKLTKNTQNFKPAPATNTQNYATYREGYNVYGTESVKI

**Q.** Which “ACh-evoked currents increased to” value [1] does the source give for `Cc1cccc(C)c1NC(=O)CN1CCCC1=O` [nefiracetam, 2-oxo-1-pyrrolidinylacetic acid 2,6-dimethylanilide] here?
**A.** 159%

**Q.** What about the “current potentiation in mutant ACh receptors lacking PKC phosphorylation sites” value [2] of the same compound?
**A.** exhibited no current potentiation

**Q.** What about the “paired-pulse facilitation: reaction to first pulse potentiated by the next pulse” value [3] of the same compound?
**A.** ≤ 120%

**Q.** What about the “time until which augmentation of fEPSPs was observed” value [4] of the same compound?
**A.** ≥ 240 min

**Q.** What about the “effect on calcium-dependent chloride currents induced by stimulation from the endogenous muscarinic ACh receptors (FIG. 2)” value ([5]; oocyte not expressing ACh receptors, atropine-free Ringer, ACh 100 µM) of the same compound?
**A.** had no effect

**Q.** What about the “effect on chloride ion (Cl^-) currents evoked by Ca^2+ influx through the nACh receptor channels” value ([5]; oocytes, data not shown) of the same compound?
**A.** had no effect

**Q.** And the “effect on AMPA (GluR1, 2, 3) receptor currents (Fig. 1)” value [6]?
**A.** never potentiated
